Laboratory results as given in ChEMBL document CHEMBL1153993, “Exploring a pocket for polycycloaliphatic groups in the CXCR3 receptor with the aid of a modular synthetic strategy” (Bioorg Med Chem Lett, 2009).

What was measured:
[1] = molecular target: T1, C-X-C chemokine receptor type 3 (Homo sapiens, UniProt P49682); assay: Displacement of [125I]CXCL10 from human CXCR3 expressed in HEK293T cells; type: cell-based, HEK-293T
T1 sequence (P49682 whole entry): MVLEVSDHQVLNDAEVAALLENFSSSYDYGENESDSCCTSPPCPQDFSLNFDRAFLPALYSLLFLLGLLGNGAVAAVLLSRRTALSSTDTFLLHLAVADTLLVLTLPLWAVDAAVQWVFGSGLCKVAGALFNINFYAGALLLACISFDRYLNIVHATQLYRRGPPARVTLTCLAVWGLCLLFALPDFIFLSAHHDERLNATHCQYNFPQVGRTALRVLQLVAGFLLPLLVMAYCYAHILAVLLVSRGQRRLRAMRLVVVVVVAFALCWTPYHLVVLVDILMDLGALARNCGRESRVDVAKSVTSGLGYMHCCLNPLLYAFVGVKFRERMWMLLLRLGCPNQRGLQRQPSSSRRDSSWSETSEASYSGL

[2] = molecular target: T2, C-X-C chemokine receptor type 3 (Homo sapiens) (UniProt P49682); assay: Antagonist activity at human CXCR3 expressed in HEK293T cells coexpressing Galphaqi5 assessed as inhibition of CXCL10-induced [3H]inositol phosphate levels by liquid scintillation counting; type: functional, cell-based; settings: HEK-293T
T2 sequence (whole entry): T1 sequence (P49682 whole entry)

## CCNC(=O)c1cnc(N2CCN(C3CCN(Cc4ccc(Cl)cc4)CC3)[C@@H](CC)C2)c(Cl)c1
[1]
  Ki: 0.00316 µM

## Fc1cc(Cl)ccc1CN1CCC(NC2C3CC4CC(C3)CC2C4)CC1 (stereo unspecified)
[2]
  pKb: 6.1
[1]
  Ki: 0.158 µM

## CC1(C)[C@@H]2CC[C@@]1(C)[C@H](NC1CCN(Cc3ccc(OC(F)(F)F)cc3)CC1)C2 (relative stereo)
[1]
  Ki: 0.794 µM

## CC1(C)C2CC=C(CNC3CCN(Cc4ccc(Cl)cc4F)CC3)C1C2 (stereo unspecified)
[1]
  Ki: 3.98 µM

## CC1(C)[C@@H]2CC[C@@]1(C)[C@H](NC1CCN(Cc3cc(F)cc(C(F)(F)F)c3)CC1)C2 (relative stereo)
[1]
  Ki: 3.98 µM

## CC1(C)[C@@H]2CC[C@@]1(C)[C@H](NC1CCN(Cc3ccc(Cl)cc3)CC1)C2 (relative stereo)
[1]
  Ki: 0.501 µM

## COc1ccccc1CN1CCC(N[C@@H]2C[C@H]3CC[C@]2(C)C3(C)C)CC1 (relative stereo)
[1]
  Ki: 10 µM

## Fc1cc(Cl)ccc1CN1CCC(NC/C2=C/CCCCCC2)CC1
[1]
  Ki: 2.51 µM

## CC1(C)[C@@H]2CC[C@@]1(C)[C@H](NC1CCN(Cc3ccc(Cl)cc3F)CC1)C2 (relative stereo)
[2]
  pKb: 5.7
[1]
  Ki: 0.398 µM

## Fc1cc(Cl)ccc1CNC1CCN(C2C3CC4CC(C3)CC2C4)CC1 (stereo unspecified)
[1]
  Ki: 3.98 µM

## Fc1cc(Cl)ccc1CN1CCC(NC2CCCCC2)CC1
[1]
  Ki: 5.01 µM

## Fc1cc(Cl)ccc1CN1CCC(N2CCc3ccccc3C2)CC1
[1]
  Ki: 5.01 µM

## CC1(C)[C@@H]2CC[C@@]1(C)[C@@H](NC1CCN(Cc3ccc(Cl)cc3F)CC1)C2 (relative stereo; 60)
[1]
  Ki: 0.398 µM

## CCOC(=O)C1=C(NC2C3CC4CC(C3)CC2C4)CCN(Cc2ccc(Cl)cc2F)C1 (stereo unspecified)
[1]
  Ki: 5.01 µM

## Fc1cc(Cl)ccc1CN1CCC(NCC2C3CC4CC(C3)CC2C4)CC1 (stereo unspecified)
[1]
  Ki: 1 µM

## Fc1cc(Cl)ccc1CN1CCC(NCCC(c2ccccc2)c2ccccc2)CC1
[1]
  Ki: > 100 µM

## CN(C1CCN(Cc2ccc(Cl)cc2F)CC1)C1C2CC3CC(C2)CC1C3 (stereo unspecified)
[1]
  Ki: 1.26 µM

## CCOC(=O)C1CN(Cc2ccc(Cl)cc2F)CCC1NC1C2CC3CC(C2)CC1C3 (single isomer, unassigned)
[1]
  Ki: 3.98 µM

## O=C(Nc1ccc(Cl)cc1F)N1CCC(NC2C3CC4CC(C3)CC2C4)CC1 (stereo unspecified)
[1]
  Ki: > 10 µM

## CC1(C)[C@@H]2CC[C@@]1(C)[C@H](NC1CCN(Cc3ccc(F)c(C(F)(F)F)c3)CC1)C2 (relative stereo)
[1]
  Ki: 2.51 µM

## CN(C1CCN(Cc2ccc(Cl)cc2F)CC1)[C@@H]1C[C@H]2CC[C@]1(C)C2(C)C (relative stereo)
[1]
  Ki: 1.58 µM

## CCOC(=O)C1CN(Cc2ccc(Cl)cc2F)CCC1NC1C2CC3CC(C2)CC1C3 (stereo in doubt; 32)
[1]
  Ki: 5.01 µM

## COc1ccc(CN2CCC(N[C@@H]3C[C@H]4CC[C@]3(C)C4(C)C)CC2)cc1 (relative stereo)
[1]
  Ki: 2 µM

## CC1(C)[C@@H]2CC[C@@]1(C)[C@H](NC1CCN(Cc3ccc(N=[N+]=[N-])cc3)CC1)C2 (relative stereo)
[1]
  Ki: 0.794 µM

## CC12CC3CC(C)(CC(C1)C3NC1CCN(Cc3ccc(Cl)cc3F)CC1)C2 (stereo unspecified)
[1]
  Ki: 0.501 µM

## CN(C1CCN(Cc2ccc(Cl)cc2F)CC1)[C@H]1C[C@H]2CC[C@]1(C)C2(C)C (relative stereo)
[1]
  Ki: 1.26 µM

## Fc1cc(Cl)ccc1CN1CCC(CNC2C3CC4CC(C3)CC2C4)CC1 (stereo unspecified)
[1]
  Ki: 3.98 µM

## CC1(C)[C@@H]2CC[C@@]1(C)[C@H](NC1CCN(Cc3ccccc3)CC1)C2 (relative stereo)
[1]
  Ki: 2.51 µM

## c1ccc(CN2CCC(NC3C4CC5CC(C4)CC3C5)CC2)cc1 (stereo unspecified)
[1]
  Ki: 3.98 µM

## CC1(C)[C@@H]2CC[C@@]1(C)[C@H](NC1CCN(Cc3ccc(F)cc3F)CC1)C2 (relative stereo)
[1]
  Ki: 2 µM

## CN(C)c1ccc(CN2CCC(N[C@@H]3C[C@H]4CC[C@]3(C)C4(C)C)CC2)cc1 (relative stereo)
[1]
  Ki: 3.98 µM

## CC1(C)[C@@H]2CC[C@@]1(C)[C@H](NC1CCN(Cc3ccc(N)cc3)CC1)C2 (relative stereo)
[1]
  Ki: 6.31 µM

## Clc1ccc(CN2CCC(NC3C4CC5CC(C4)CC3C5)CC2)cc1 (stereo unspecified)
[1]
  Ki: 0.398 µM

## COc1cccc(CN2CCC(N[C@@H]3C[C@H]4CC[C@]3(C)C4(C)C)CC2)c1 (relative stereo)
[1]
  Ki: 7.94 µM

## Fc1cc(Cl)ccc1CN1CCCN(C2C3CC4CC(C3)CC2C4)CC1 (stereo unspecified)
[1]
  Ki: 1.58 µM

## Fc1cc(Cl)ccc1CN1CCC(NCC2CCCCC2)CC1
[1]
  Ki: 3.98 µM

## CC1(C)[C@@H]2CC[C@@]1(C)[C@H](NC1CCN(Cc3ccco3)CC1)C2 (relative stereo)
[1]
  Ki: 6.31 µM

## Fc1cc(Cl)ccc1CN1CCC(NCC23CC4CC(CC(C4)C2)C3)CC1
[1]
  Ki: 0.501 µM

## CC1(C)C2CC[C@@]1(C)C(CNC1CCN(Cc3ccc(Cl)cc3F)CC1)C2 (mixture of isomers)
[1]
  Ki: 2 µM

## CC(=O)Nc1ccc(CN2CCC(N[C@@H]3C[C@H]4CC[C@]3(C)C4(C)C)CC2)cc1 (relative stereo)
[1]
  Ki: > 10 µM

## CC1(C)[C@@H]2CC[C@@]1(C)[C@@H](NC1CCN(Cc3ccc(Cl)cc3F)CC1)C2 (relative stereo; 62)
[1]
  Ki: 0.631 µM

## CC1(C)[C@@H]2CC[C@@]1(C)[C@H](NC1CCN(Cc3cccnc3)CC1)C2 (relative stereo)
[1]
  Ki: > 10 µM

## Fc1cc(Cl)ccc1CN1CCC(NC2C3CC4CC2CN(C4)C3)CC1 (stereo unspecified)
[1]
  Ki: 7.94 µM

## CC1(C)[C@@H]2CC[C@@]1(C)[C@H](NC1CCN(Cc3ccccn3)CC1)C2 (relative stereo)
[1]
  Ki: 7.94 µM

## CC1(C)[C@@H]2CC[C@@]1(C)[C@H](NC1CCN(Cc3c(F)c(F)c(F)c(F)c3F)CC1)C2 (relative stereo)
[1]
  Ki: 0.501 µM

## COC(=O)c1ccc(CN2CCC(N[C@@H]3C[C@H]4CC[C@]3(C)C4(C)C)CC2)cc1
[1]
  Ki: 3.16 µM

## Fc1cc(Cl)ccc1CN1CCCC(NC2C3CC4CC(C3)CC2C4)C1 (stereo unspecified)
[1]
  Ki: 2 µM

## CN1C2CCC1CC(NC1CCN(Cc3ccc(Cl)cc3F)CC1)C2 (mixture of isomers)
[1]
  Ki: > 10 µM

## COc1ccc(CN2CCC(N[C@@H]3C[C@H]4CC[C@]3(C)C4(C)C)CC2)c(F)c1
[1]
  Ki: 1.58 µM

## CN(CC1C2CC3CC(C2)CC1C3)C1CCN(Cc2ccc(Cl)cc2F)CC1 (stereo unspecified)
[1]
  Ki: 2.51 µM

## CC(c1ccc(Cl)cc1F)N1CCC(NC2C3CC4CC(C3)CC2C4)CC1 (stereo unspecified)
[1]
  Ki: 5.01 µM

## Clc1ccc(CN2CCC(NC34CC5CC(CC(C5)C3)C4)CC2)cc1
[1]
  Ki: 1 µM

## Fc1cc(Cl)ccc1CN1CCC(N2CCCC2)CC1
[1]
  Ki: > 10 µM

## CC1(C)[C@@H]2CC[C@@]1(C)[C@H](NC1CCN(Cc3ccccc3F)CC1)C2 (relative stereo)
[1]
  Ki: 6.31 µM
